Type in all cases: cell-based
One experiment concerns the target TEAD1 in SK-HEP1 cells (Homo sapiens (Human), UniProt P28347). Kind of experiment: TEAD degradation in SK-HEP1 cell line (immunofluorescence). In outline:
(§1)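 SK-HEP1 and NCI-H226 cells were treated in duplicate for 16 or 24 h at 37 °C with compound (10 points, 1:3, top 30 µM final). After fixation, TEAD1 was immunostained with anti-TEF1 and per-cell fluorescence quantified by high-content imaging. DC50 from curve fitting.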

A further experiment deals with TEAD1 in NCI-H226 cells (Homo sapiens (Human), UniProt P28347). Description: TEAD degradation in NCI-H226 cell line (immunofluorescence). The method, boiled down:
as §1

The next experiment deals with TEAD1 (Homo sapiens (Human), UniProt P28347). Kind of experiment: TEAD degradation assay, 6 h time point, cell line not stated. The following applies: after 6 h, read-out: degradation concentration, DC50, after 6 h. The protocol: Degradation of TEAD isoform TEAD1 by exemplary compounds which has been determined at different time points in two different cell lines, SK-HEP1 and NCI-H226: For the assay, SK-HEP1 (ATCC HTB-52) and NCI-H226 (ATCC CRL-5826) cells were treated in duplicates with the test compounds in a 10-point dose, 1:3 dilution steps, with the top concentration starting at 30 uM (final concentration in assay). […] The primary antibody used was Anti-TEF1 (BD, 610293) and the secondary antibody used was Alexa Fluor® 488 Goat Anti-Mouse IgG (H+L) (Molecular Probes, A-11001). Finally, the cell nuclei were co-stained by Hoechst 33258 (Invitrogen, H-3569) and imaged using a high content imager. The amount of TEAD degradation was determined by quantifying the fluorescence intensity levels of Anti-TEF1 in each individual cell per well. DC50 was calculated using curve fitting software Genedata Screener. Cell media: The SK-HEP1 cells were cultured in the following media: MEM, +10% FCS, +1× GlutaMAX, +100 μM NEAA, +10 mM HEPES, +0.5% Pen/Strep. The NCI-H226 cells were cultured in the following media: RPMI 1640, +10% FBS, +1× GlutaMAX, +10 mM HEPES, +0.5% Pen/Strep.
Sequence of TEAD1 (P28347 whole entry, canonical isoform): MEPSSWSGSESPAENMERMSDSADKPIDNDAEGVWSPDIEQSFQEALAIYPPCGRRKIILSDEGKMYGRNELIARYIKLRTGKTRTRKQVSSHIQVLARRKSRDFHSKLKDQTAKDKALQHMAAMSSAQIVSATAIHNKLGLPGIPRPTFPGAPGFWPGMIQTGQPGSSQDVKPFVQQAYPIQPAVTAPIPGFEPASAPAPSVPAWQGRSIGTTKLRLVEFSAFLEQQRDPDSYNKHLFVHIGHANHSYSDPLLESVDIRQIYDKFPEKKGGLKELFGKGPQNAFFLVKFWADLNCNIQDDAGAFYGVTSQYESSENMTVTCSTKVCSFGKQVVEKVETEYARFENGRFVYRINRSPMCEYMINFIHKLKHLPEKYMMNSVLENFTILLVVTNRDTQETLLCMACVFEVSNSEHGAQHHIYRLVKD

Like-named read-outs stand apart in the source and are kept apart here.

Sequence of TEAD1 in NCI-H226 cells (P28347 whole entry): as the sequence (P28347 whole entry, canonical isoform) above
Sequence of TEAD1 in SK-HEP1 cells (P28347 whole entry): as the sequence (P28347 whole entry, canonical isoform) above

For `Cc1ncsc1-c1ccc([C@H](C)NC(=O)[C@@H]2C[C@@H](O)CN2C(=O)[C@@H](NC(=O)CCCCCc2cn(CCCCCCCNC(=O)c3ccc4c(c3)c3cn(C)nc3n4-c3ccc(C(F)(F)F)cc3)nn2)C(C)(C)C)cc1` [Compound 29, (2S,4R)-1-[(2S)-3,3-dimethyl-2-(6-{1-[7-({2-methyl-8-[4-(trifluoromethyl)phenyl]-2H,8H-pyrazolo[3,4-b]indol-5-yl}formamido)heptyl]-1H-1,2,3-triazol-4-yl}hexanamido)butanoyl]-4-hydroxy-N-[(1S)-1-[4-(4-methyl-1,3-thiazol-5-yl)phenyl]ethyl]pyrrolidine-2-carboxamide], the DC50 is 220 nM at TEAD1 in SK-HEP1 cells (16 h incubation, read-out: DC50 SK-HEP1 16 h); 280 nM on TEAD1 in SK-HEP1 cells (24 h incubation, read-out: DC50 SK-HEP1 24 h); 100 to 1000 nM on TEAD1 in SK-HEP1 cells (24 hours, ranges, read-out: DC50 SK-HEP1); 200 nM on TEAD1 in NCI-H226 cells (16 h incubation, read-out: DC50 NCI-H226 16 h); 300 nM on TEAD1 in NCI-H226 cells (24 h incubation, read-out: DC50 NCI-H226 24 h); 100 to 1000 nM on TEAD1 in NCI-H226 cells (24 hours, ranges, read-out: DC50 NCI-H226). The DC50 at TEAD1 was 280 nM.
